This note sets out measurements from US7923004B2 (priority 2006, dated 2011).

SMILES strings stand for the structures. A value given as a limit tells only on which side of the number the result lay.

What all share (format): cell-based
Series [1] has as its system HCV genotype 1a replicon (En5-3/Htat2ANeo cells). Put plainly: HCV-1a Replicon RNA (Taqman) inhibition assay. To be noted: Hepatitis C virus, 72 h.
Series [2] can be described thus: Cell Titer-Glo Cell Viability Assay, genotype 1a cells. The settings on record: human, En5-3/Htat2ANeo (HCV genotype 1a replicon) cells, HCV-1a assays, read-out: Cytotoxicity* (CC50). As to the method:
(§1) Cell Seeding and Compound Treatment: Huh-Luc-Neo (Genotype 1b) or En5-3/Htat2ANeo (Genotype 1a) cells are seeded at 5000-7000/well in an opaque-walled 96 plate with Growth Medium (DMEM phenol red free+PS+2 mM glutamine; 100 ul/well). The compounds to be tested for inhibition of cell viability are added to the experimental wells so as to generate a dose response curve (8-9 concentrations, 10 μl/well at 10× assay concentration) and the cells are then incubated (5% CO2, 37° C.) for 72 h.
(§2) Reagent Preparation and Assay: After completion of the incubation period the cell viability measurements are made using the Cell Titre Glo Assay (Promega) according to the manufacturer's recommended protocol. Briefly, the CellTiter-Glo Buffer is thawed and equilibrated to room temperature prior to use. The lyophilized CellTiter-Glo Substrate is also equilibrated to room temperature prior to use. 10 ml of CellTiter-Glo Buffer is then transferred to 1 vial of CellTiter-Glo Substrate and mixed gently with a Vortex. 100 μl of CellTiter-Glo Assay reagent (CellTiter-Glo Buffer+CellTiter-Glo Substrate Mixture) is added to each well. The well contents are mixed for 5 min. on an orbital shaker at room temperature to induce cell lysis and the luminescence is then measured using a luminometer.

In series [3] the test system is HCV genotype 1b replicon (Huh-Luc-Neo cells). Put plainly: HCV Replicon RNA (Taqman) Assay, genotype 1b. To be noted: Hepatitis C virus, Huh-Luc-Neo cells, genotype 1b, HCV RNA, 72 h, read-out: HCV-1b Replicon Inhibition*, Taqman (EC50).
The test system is the same in series [4]. Kind of series: HCV Replicon Luciferase Assay. To be noted: Hepatitis C virus, Huh-Luc-Neo cells, genotype 1b, 72 h, read-out: HCV-1b Replicon Inhibition*, Luciferase (EC50).
The nature of series [5]: Cell Titer-Glo Cell Viability Assay, genotype 1b cells. To be noted: human, Huh-Luc-Neo (HCV genotype 1b replicon) cells, HCV genotype 1b assays, read-out: Cytotoxicity* (CC50). As to the method:
as §1, §2

Series [6] relates to HCV Genotype 1b luc-neo/ET replicon with Y2065H mutation in NS5A. Kind of series: Luciferase EC50 in Huh7-Lunet cells with luc-neo/ET/Y2065H mutant vs parental luc-neo/ET replicon. The settings on record: transient replicons, 72 h. As to the method: Resistance of Compound #64 (Table 1) and related pyrazoles was then determined by treating Huh7-Lunet cells (Koutsoudakis et al, J. Virol. 81(2):588-98, 2007) transiently electroporated with RNAs transcribed from either the luc-neo/ET/Y2065H mutant and the parental luc-neo/ET replicons (Blight et al, J. Virol. 77(5):3181-90, 2003). Huh7-Lunet expressing the luc-neo/ET/Y2065H mutant and the parental luc-neo/ET replicons were treated with selected compounds for 72 hours. EC50 and CC50 values were determined as described in the HCV Replicon Luciferase Assay and CellTiter-Glo Cell Viability Assay protocols. […] CC50s for the compound vs. the luc-neo/ETIY2065H mutant and parental luc-neo/ET replicons were determined to be>33 μM.

As for `COCC(=O)N[C@@H](C(=O)N1CCOC[C@H]1C(=O)Nc1ccc(C#Cc2cn(C)nc2-c2cc(Cl)ccc2O)cc1)c1ccccc1` [Compound 12], the EC50 in series [1] was less than 1 µM. The cytotoxic concentration (CC50) at 72 h in series [2] is more than 33.3 µM.
In the case of `Cn1cc(C#Cc2ccc(NC(=O)[C@@H]3COCCN3C(=O)[C@H](NC(=O)N3CCC3)c3ccccc3)cc2)c(-c2cc(Cl)ccc2O)n1` [Compound 10], the EC50 in series [1] was less than 1 µM. For the same compound, the CC50 at 72 h in series [2] is more than 33.3 µM.
In the case of `Cn1cc(C#Cc2ccc(NC(=O)[C@@H]3COCCN3C(=O)[C@H](NC(=O)C3CC3)c3ccccc3)cc2)c(-c2cc(Cl)ccc2O)n1` [Compound 52], the EC50 in series [3] and in series [4] was less than 1 µM each time. Moreover, in series [5], the half-maximal cytotoxic concentration (CC50) at 72 h is 10 to 100 µM. Also, in series [6], the “EC50 Luc-neo-ET-Y2065H/EC50 Luc-neo-ET” value amounted to 79.
On to `N#CCCn1cc(C#Cc2ccc(NC(=O)[C@@H]3COCCN3C(=O)[C@H](NC(=O)N3CCOCC3)c3ccccc3)cc2)c(-c2cc(Cl)ccc2O)n1` [Compound 4], for which the half-maximal effective concentration (EC50) in series [1] was less than 1 µM. The half-maximal cytotoxic concentration (CC50) at 72 h in series [2] is more than 33.3 µM.
For the compound `N#CCCn1cc(C#Cc2ccc(NC(=O)[C@@H]3COCCN3C(=O)[C@H](NC(=O)NC3CC3)c3ccccc3)cc2)c(-c2cc(Cl)ccc2O)n1` [Compound 3], in series [1], the concentration giving a half-maximal response (EC50) is less than 1 µM. Also, the cytotoxic concentration (CC50) at 72 h in series [2] is more than 33.3 µM.
In series [1], `CN1CCN(C(=O)N[C@@H](C(=O)N2CCOC[C@H]2C(=O)Nc2ccc(C#Cc3cn(CCC#N)nc3-c3cc(Cl)ccc3O)cc2)c2ccccc2)CC1` [Compound 16] came in with an EC50 of less than 1 µM. For the same compound, in series [2], the CC50 at 72 h was 1 to 10 µM.
In turn, `N#CCCn1cc(C#Cc2ccc(NC(=O)[C@@H]3COCCN3C(=O)[C@H](NC(=O)N3CCC(=O)CC3)c3ccccc3)cc2)c(-c2cc(Cl)ccc2O)n1` [Compound 7] displayed an EC50 in series [1] of less than 1 µM. Further, the 50% cytotoxic concentration (CC50) at 72 h in series [2] was more than 33.3 µM.
The like results for `Cn1nccc1C(=O)N[C@@H](C(=O)N1CCOC[C@H]1C(=O)Nc1ccc(C#Cc2cn(CCC#N)nc2-c2cc(Cl)ccc2O)cc1)c1ccccc1` [Compound 1] were, in that order, less than 1 µM and more than 33.3 µM.
For `N#CCCn1cc(C#Cc2ccc(NC(=O)[C@@H]3COCCN3C(=O)[C@H](NC(=O)N3CCNC(=O)C3)c3ccccc3)cc2)c(-c2cc(Cl)ccc2O)n1` [Example 20], the EC50 in series [1] was less than 1 µM. Also, the CC50 at 72 h in series [2] is more than 33.3 µM.
Consider `CN(C)CCn1cc(C#Cc2ccc(NC(=O)[C@@H]3COCCN3C(=O)[C@H](NC(=O)NOC(C)(C)C)c3ccccc3)cc2)c(-c2cc(Cl)ccc2O)n1` [Example 18], for which, in series [1], the concentration for a half-maximal effect (EC50) was in the range of 1 to 10 µM. For the same compound, the 50% cytotoxic concentration (CC50) at 72 h in series [2] lay in the range of 1 to 10 µM.
Consider `Cc1ccc(O)c(-c2nn(C)cc2C#Cc2ccc(NC(=O)[C@@H]3COCCN3C(=O)[C@H](NC(=O)OC(C)(C)C)c3ccccc3)cc2)c1` [Compound 23A], for which the EC50 in series [3] (GETYPE1B) and in series [4] (GETYPE1B) was less than 1 µM throughout. Also, the CC50 at 72 h in series [5] is more than 100 µM. In addition, in series [6], the “EC50 Luc-neo-ET-Y2065H/EC50 Luc-neo-ET” value amounted to 6.
For `CC(C)n1cc(C#Cc2ccc(NC(=O)[C@@H]3COCCN3C(=O)[C@H](NC(=O)NC(C)(C)C)c3ccccc3)cc2)c(-c2cc(Cl)ccc2O)n1` [Compound 11], in series [1], the EC50 was less than 1 µM. Further, in series [2], the half-maximal cytotoxic concentration (CC50) at 72 h is more than 33.3 µM.
As for `Cn1cc(C#Cc2ccc(NC(=O)[C@@H]3COCCN3C(=O)[C@H](NC(=O)NC(C)(C)C)c3ccccc3)cc2)c(-c2cc(Cl)ccc2O)n1` [Compound 53], the 50% effective concentration (EC50) in series [3] and in series [4] was less than 1 µM each time. Further, the CC50 at 72 h in series [5] fell in the range of 10 to 100 µM. Also, the “EC50 Luc-neo-ET-Y2065H/EC50 Luc-neo-ET” value in series [6] was found to be 71.
With `N#CCCn1cc(C#Cc2ccc(NC(=O)[C@@H]3COCCN3C(=O)[C@H](NC(=O)c3cnccn3)c3ccccc3)cc2)c(-c2cc(Cl)ccc2O)n1` [Compound 2], the 50% effective concentration (EC50) in series [1] was less than 1 µM. In addition, the half-maximal cytotoxic concentration (CC50) at 72 h in series [2] was more than 33.3 µM.
With `Cc1ccc(O)c(-c2nn(C)cc2C#Cc2ccc(NC(=O)[C@@H]3COCCN3C(=O)[C@H](NC(=O)N3CCOCC3)c3ccccc3)cc2)c1` [Example 19], the EC50 in series [1] is less than 1 µM. Moreover, the CC50 at 72 h in series [2] was more than 33.3 µM.
Taken in the same sequence, the figures for `Cn1cc(C#Cc2ccc(NC(=O)[C@@H]3COCCN3C(=O)[C@H](NC(=O)c3cccs3)c3ccccc3)cc2)c(-c2cc(Cl)ccc2O)n1` [Compound 9] were less than 1 µM and more than 33.3 µM.
The like results for `COC(=O)C1CCCN1C(=O)N[C@@H](C(=O)N1CCOC[C@H]1C(=O)Nc1ccc(C#Cc2cn(CCC#N)nc2-c2cc(Cl)ccc2O)cc1)c1ccccc1` (stereo partly shown) [Compound 14] were, in that order, less than 1 µM and more than 33.3 µM.
The compound `N#CCCn1cc(C#Cc2ccc(NC(=O)[C@@H]3COCCN3C(=O)[C@H](NC(=O)c3ccccc3)c3ccccc3)cc2)c(-c2cc(Cl)ccc2O)n1` [Compound 13] showed an EC50 in series [1] of less than 1 µM. Moreover, the half-maximal cytotoxic concentration (CC50) at 72 h in series [2] was more than 33.3 µM.
In the case of `C[C@@H]1CN(C(=O)N[C@@H](C(=O)N2CCOC[C@H]2C(=O)Nc2ccc(C#Cc3cn(CCC#N)nc3-c3cc(Cl)ccc3O)cc2)c2ccccc2)C[C@H](C)O1` [Compound 8], the EC50 in series [1] is less than 1 µM. Also, the cytotoxic concentration (CC50) at 72 h in series [2] was more than 33.3 µM.
Take `Cn1cc(C#Cc2ccc(NC(=O)[C@@H]3COCCN3C(=O)[C@H](NC(=O)N3CCOCC3)c3ccccc3)cc2)c(-c2cc(Cl)ccc2O)n1` [Example 17]: the EC50 in series [1] (GETYPE1A) is less than 1 µM. In series [2], the CC50 at 72 h is more than 33.3 µM.
Compound `CC(C)n1cc(C#Cc2ccc(NC(=O)[C@@H]3COCCN3C(=O)[C@H](NC(=O)c3ccccc3)c3ccccc3)cc2)c(-c2cc(Cl)ccc2O)n1` [Compound 6] showed an EC50 in series [1] of less than 1 µM. Besides, in series [2], the CC50 at 72 h was more than 33.3 µM.
Compound `N#CCCn1cc(C#Cc2ccc(NC(=O)[C@@H]3COCCN3C(=O)[C@H](NC(=O)N3CCC3)c3ccccc3)cc2)c(-c2cc(Cl)ccc2O)n1` [Compound 15] registered a half-maximal effective concentration (EC50) in series [1] of less than 1 µM. In addition, in series [2], the half-maximal cytotoxic concentration (CC50) at 72 h was more than 33.3 µM.
`Cn1cc(C#Cc2ccc(NC(=O)[C@@H]3COCCN3C(=O)[C@H](NC(=O)c3ccc(C#N)cc3)c3ccccc3)cc2)c(-c2cc(Cl)ccc2O)n1` [Compound 5]: the EC50 in series [1] is less than 1 µM. Moreover, in series [2], the CC50 at 72 h is more than 33.3 µM.
As to `Cn1cc(C#Cc2ccc(NC(=O)[C@@H]3COCCN3C(=O)[C@H](NC(=O)OC(C)(C)C)c3ccccc3)cc2)c(-c2cc(C#N)ccc2O)n1` [Compound 37], the 50% effective concentration (EC50) in series [3] and in series [4] was less than 1 µM in each case. Besides, the cytotoxic concentration (CC50) at 72 h in series [5] is more than 100 µM.
As to `Cc1ccc(O)c(-c2nn(C)cc2C#Cc2ccc(NC(=O)C3CCCCN3C(=O)[C@H](Cc3ccc(Cl)cc3Cl)NC(=O)OC(C)(C)C)cc2)c1` (stereo partly shown) [Compound 6], the concentration for a half-maximal effect (EC50) in series [3] and in series [4] was less than 1 µM in each case. Further, the half-maximal cytotoxic concentration (CC50) at 72 h in series [5] is more than 100 µM.
`Cc1ccc(O)c(-c2nn(C)cc2C#Cc2ccc(NC(=O)C3CCCCN3C(=O)[C@]3(NC(=O)OC(C)(C)C)C[C@@H]3c3ccccc3)cc2)c1` (stereo partly shown) [Example 21]: the EC50 in series [3] and in series [4] was less than 1 µM each time. In series [5], the CC50 at 72 h fell in the range of 10 to 100 µM.
For `Cc1ccc(O)c(-c2nn(C)cc2C#Cc2ccc(NC(=O)C3CCCCN3S(=O)(=O)c3cccs3)cc2)c1` (stereo not shown) [Compound 12], the EC50 in series [3] and in series [4] was less than 1 µM in each case. Besides, the 50% cytotoxic concentration (CC50) at 72 h in series [5] is more than 100 µM.
Turning to `Cc1ccc(O)c(-c2nn(C)cc2C#Cc2ccc(NC(=O)C3CCCCN3C(=O)[C@H](Cc3ccccc3)NC(=O)CC3CCCC3)cc2)c1` (stereo partly shown) [Compound 7], the EC50 in series [3] and in series [4] was less than 1 µM in each case. Further, the CC50 at 72 h in series [5] was more than 100 µM.
Take `Cc1ccc(O)c(-c2nn(C)cc2C#Cc2ccc(NC(=O)C3CCCCN3C(=O)[C@@H](NC(=O)OC(C)(C)C)C3CCCCC3)cc2)c1` (stereo partly shown) [Compound 13]: the half-maximal effective concentration (EC50) in series [3] is less than 1 µM; in series [4], 1 to 10 µM. In addition, in series [5], the 50% cytotoxic concentration (CC50) at 72 h is more than 100 µM.
